Key:
[1] = system: human β-coronavirus strain OC43 or human α-coronavirus strain 229E; experiment: Coronavirus assay (cytopathic effect, CellTiter-Glo, HeLa or MRC-5 cells); assay type: cell-based; settings: Betacoronavirus 1; for EC50: coronavirus strain OC43 or 229E not specified, 4 h pre-incubation, 5 days; for inhibition: at one or more of the concentrations 75 μM, 10 μM and 2 μM, strain OC43 or 229E not specified
Chikungunya virus = experiment: Chikungunya assay; assay type: cell-based; settings: 2 h pre-incubation
[2] = system: TC-83 strain Venezuelan equine encephalitis virus; experiment: microbe, parasite or virus in culture; assay type: cell-based
MERS = experiment: microbe, parasite or virus in culture; assay type: cell-based; settings: Middle East respiratory syndrome-related coronavirus, 96 h
SARS polymerase = SARS polymerase (Severe acute respiratory syndrome coronavirus, UniProt P0C6X7); experiment: biochemical; design: species or system SARS virus

Structure (SMILES): CCOc1nc(N)nc2c1ncn2[C@@H]1O[C@](F)(COP(=O)(N[C@@H](C)C(=O)OC2CCCCC2)Oc2ccccc2)[C@@H](F)[C@@]1(C)O (stereo partly drawn) [Compound 16]
- EC50 [1]: < 10 µM

Structure (SMILES): CC(C)OC(=O)OCOP(=O)(OCOC(=O)OC(C)C)OC[C@@]1(F)O[C@@H](n2ccc(=O)[nH]c2=O)[C@](C)(O)[C@@H]1O [Compound 9]
- EC50 (Chikungunya virus): < 10 µM
- EC50 [2]: < 10 µM

Structure (SMILES): CCOc1nc(N)nc2c1ncn2[C@@H]1O[C@H](COP(=O)(N[C@@H](C)C(=O)OC2CCCCC2)Oc2ccccc2)[C@@H](O)[C@@]1(C)Cl (stereo partly drawn) [Compound 267]
- EC90 (MERS): 10 to 50 µM

Structure (SMILES): CCOc1nc(N)nc2c1ncn2[C@@H]1O[C@](F)(COP(=O)(OCOC(=O)OC(C)C)OCOC(=O)OC(C)C)[C@@H](F)[C@@]1(C)O [Compound 57]
- inhibition [1]: ≥ 50%
- EC50 [1]: < 10 µM
- EC90 (MERS): < 10 µM

Structure (SMILES): C[C@@]1(Cl)[C@H](O)[C@@H](COP(=O)(O)OP(=O)(O)OP(=O)(O)O)O[C@H]1n1cnc2c(=O)[nH]c(N)nc21 [Compound 246]
- IC50 (SARS polymerase): < 10 µM

Structure (SMILES): CC(C)(C)C(=O)OCOP(=O)(OCOC(=O)C(C)(C)C)OC[C@H]1O[C@@H](n2ccc(=O)[nH]c2=O)[C@](C)(O)[C@@H]1O [Compound 265]
- EC50 (Chikungunya virus): < 10 µM
- EC90 (MERS): 10 to 50 µM
- EC50 [2]: < 10 µM

Structure (SMILES): CCOc1nc(N)nc2c1ncn2[C@@H]1O[C@](F)(CO[P@](=O)(N[C@@H](C)C(=O)OC2CCCCC2)Oc2ccccc2)[C@@H](O)[C@@]1(C)F (single isomer, unassigned) [Compound 212a]
- inhibition [1]: ≥ 50%
- EC50 [1]: < 10 µM

Structure (SMILES): C[C@H](NP(=O)(OC[C@@]1(F)O[C@@H](n2cnc3c(=O)[nH]c(N)nc32)[C@](C)(O)[C@@H]1F)Oc1ccccc1)C(=O)OC1CCCCC1 (stereo partly drawn) [Compound 14]
- inhibition [1]: ≥ 50%

Structure (SMILES): C[C@H](NP(=O)(OC[C@H]1O[C@@H](n2cnc3c(=O)[nH]c(N)nc32)[C@](C)(Cl)[C@@H]1O)Oc1ccccc1)C(=O)OC1CCCCC1 (stereo partly drawn) [Compound 266]
- EC90 (MERS): < 10 µM

Structure (SMILES): CCOc1nc(N)nc2c1ncn2[C@@H]1O[C@](CN=[N+]=[N-])(COP(=O)(OCOC(=O)OC(C)C)OCOC(=O)OC(C)C)[C@@H](O)[C@H]1F [Compound 179]
- EC50 [1]: < 10 µM

Structure (SMILES): C#C[C@]1(O)[C@H](n2cnc3c(OCC)nc(N)nc32)O[C@](F)(CO[P@](=O)(N[C@@H](C)C(=O)OC2CCCCC2)Oc2ccccc2)[C@H]1O [Compound 27]
- EC90 (MERS): 10 to 50 µM

Structure (SMILES): C#C[C@]1(O)[C@H](n2cnc3c(=O)[nH]c(N)nc32)O[C@](F)(COP(=O)(O)OP(=O)(O)OP(=O)(O)O)[C@H]1F [Compound 103]
- IC50 (SARS polymerase): < 10 µM

Structure (SMILES): CCOc1nc(N)nc2c1ncn2[C@@H]1O[C@](F)(COP(=O)(N[C@@H](C)C(=O)OC(C)C)Oc2ccccc2)[C@@H](F)[C@@]1(C)O (stereo partly drawn) [Compound 22]
- inhibition [1]: ≥ 50%

Structure (SMILES): C#C[C@@]1(O)[C@H](O)[C@@H](COP(=O)(O)OP(=O)(O)OP(=O)(O)O)O[C@H]1n1cnc2c(=O)[nH]c(N)nc21 [Compound 203]
- IC50 (SARS polymerase): < 10 µM

Structure (SMILES): C[C@@]1(O)[C@H](O)[C@@](CF)(COP(=O)(O)OP(=O)(O)OP(=O)(O)O)O[C@H]1n1cnc2c(=O)[nH]c(N)nc21 [Compound 34]
- IC50 (SARS polymerase): < 10 µM

Structure (SMILES): CCOc1nc(N)nc2c1ncn2[C@@H]1O[C@](F)(CO[P@@](=O)(N[C@@H](C)C(=O)OC2CCCCC2)Oc2ccccc2)[C@@H](O)[C@@]1(C)F (single isomer, unassigned) [Compound 212b]
- inhibition [1]: ≥ 50%
- EC50 [1]: < 10 µM

Structure (SMILES): CCOc1nc(N)nc2c1ncn2[C@@H]1O[C@](F)(COP(=O)(N[C@@H](C)C(=O)OCC(C)(C)C)Oc2cccc3ccccc23)[C@@H](O)[C@@]1(C)F (stereo partly drawn) [Compound 234]
- inhibition [1]: ≥ 50%

Structure (SMILES): CCOc1nc(N)nc2c1ncn2[C@@H]1O[C@]2(F)COP(=O)(OC(C)C)O[C@H]2[C@@]1(C)F (stereo partly drawn) [Compound 225]
- inhibition [1]: ≥ 50%

Structure (SMILES): CCOc1nc(N)nc2c1ncn2[C@@H]1O[C@](F)(COP(=O)(OCOC(=O)OC(C)C)OCOC(=O)OC(C)C)[C@@H](O)[C@@]1(C)F [Compound 83]
- inhibition [1]: ≥ 50%
- EC50 [1]: < 10 µM

Structure (SMILES): CCOc1nc(N)nc2c1ncn2[C@@H]1O[C@](F)(CO[P@](=O)(N[C@@H](C)C(=O)OC2CCCCC2)Oc2ccccc2)[C@@H](O)[C@@]1(C)F [Compound 25]
- EC50 (Chikungunya virus): < 10 µM
- EC90 (MERS): 10 to 50 µM
- EC50 [2]: < 10 µM

Structure (SMILES): C[C@]1(O)[C@H](n2cnc3c(=O)[nH]c(N)nc32)O[C@](F)(COP(=O)(O)OP(=O)(O)OP(=O)(O)O)[C@H]1F [Compound 101]
- IC50 (SARS polymerase): < 10 µM

Structure (SMILES): C#C[C@]1(F)[C@H](n2cnc3c(=O)[nH]c(N)nc32)O[C@](F)(COP(=O)(O)OP(=O)(O)OP(=O)(O)O)[C@H]1O [Compound 123]
- IC50 (SARS polymerase): < 10 µM

Structure (SMILES): C[C@@]1(F)[C@H](O)[C@@](CF)(COP(=O)(O)OP(=O)(O)OP(=O)(O)O)O[C@H]1n1cnc2c(=O)[nH]c(N)nc21 [Compound 162]
- IC50 (SARS polymerase): < 10 µM

Structure (SMILES): CCOc1nc(N)nc2c1ncn2[C@@H]1O[C@](F)(COP(=O)(OCOC(=O)OC(C)C)OCOC(=O)OC(C)C)[C@@H](O)[C@@]1(C)O [Compound 55]
- inhibition [1]: ≥ 50%
- EC50 [1]: < 10 µM
- EC50 (Chikungunya virus): < 10 µM
- EC50 [2]: < 10 µM

Structure (SMILES): C[C@]1(F)[C@H](n2cnc3c(=O)[nH]c(N)nc32)O[C@](F)(COP(=O)(O)OP(=O)(O)OP(=O)(O)O)[C@H]1O [Compound 19]
- IC50 (SARS polymerase): < 10 µM

Structure (SMILES): CCOc1nc(N)nc2c1ncn2[C@@H]1O[C@](CF)(COP(=O)(N[C@@H](C)C(=O)OC2CCCCC2)Oc2ccccc2)[C@@H](O)[C@@]1(C)O (stereo partly drawn) [Compound 36]
- EC90 (MERS): < 10 µM
